Experiment: Locomotion test in naive macaques after CNO
Assay type: in vivo
Method: The locomotion tests for monkeys were conducted in a custom-made observation cage (100 cm×100 cm×100 cm). The top and front of the cage were made of toughened glass in order to gain a clear view for behavioral recording. Monkeys were habituated to the observation cage by placing them inside for 30 minutes on three separate days.
For monkeys injected with AAV8R12-G88P3-HA-hM3Dq, CNO was intracranially infused into the dorsomedial caudate through the recording chamber. To infuse while the animal was awake, the monkey was trained to sit in a primate chair specially designed with its head fixed to the primate chair by a mask made of thermoplastic materials. Injections were conducted through a 33-Gauge needle connected to a 250 μL syringe via a polyethylene pipe (Hamilton, Neuros). […] The needle was held for 5 minutes for drug diffusion before retraction. […] Videos capturing the subjects' behavior were recorded for at least 90 minutes. Animal behaviors from 30-90 minutes after saline/CNO infusion were further analyzed and quantified.
For rotation analysis, only movements that occurred lower than 30 cm on the z-axis were counted. To determine the direction of the rotation, we first computed the center for the rotation data in the x-y plane as (x0, y0) by averaging all data points, and then we computed the angle relative to (x0, y0) for each time point by the following formula:
where θi represents the rotating angle at time i, and (xi, yi) represents the x-y coordinate at time i. We then calculated the change of rotating angle as Δθi=θi−θi-1. For right nigral injections, when Δθ<0, the direction of the rotation was anticlockwise and was labeled as a contraversive rotation. When Δθ>0, the direction of the rotation was clockwise and was labeled as an ipsiversive rotation. The raw data were analyzed and plotted through a custom R package. Code is available on Github (github.com/chenyef/PD_ana/blob/main/Behavior_ana.txt).

C[N+]1([O-])CCN(C2=Nc3cc(Cl)ccc3Nc3ccccc32)CC1 [CNO, clozapine N-oxide]
immobile time (FIG. 11E) (naive macaques, n=3): 149.8±22.65
percentage of contraversive and ipsiversive rotation (FIG. 11C) (naive macaques, n=3): 0.8384±0.4152
speed of contraversive rotations (FIG. 11G) (naive macaques, n=3): 39.63±7.092
speed of ipsiversive rotations (FIG. 11H) (naive macaques, n=3): 42.79±4.705
time spending in the higher portion of the observing cages (FIG. 11D) (naive macaques, n=3): 60.43±4.542
total distance (FIG. 11F) (naive macaques, n=3): 59.48±18.65
behavioral changes in naïve monkeys, in words (no viral injections): did not induce significant behavioral changes

Source: patent publication US20250382588A1, “CHIMERIC AAV AND USES THEREOF” (priority 2023, published 2025)
